The results in this text go back to patent US11865095B2, “Combination drug substance of polyamine transport inhibitor and DFMO” (Aminex Therapeutics, Inc., priority 2020, dated 2024).

Read-outs that look alike come from different tables or passages of the source.

One series is described as follows: water solubility. The series is classed as physicochemical.
A short description of series [1]: bioavailability / Biopharmaceutics Classification System class.
For series [2] the following is noted: mouse, in vivo.
A further series concerns cancer cells. Put plainly: in vitro EC50 against cancer cells. The series is classed as cell-based.
A short description of series [3]: First-in-human clinical trial NCT03536728 Part 1: plasma pharmacokinetics and tolerability of oral AMXT 1501 dicaprate and DFMO.
Another series in a line: in vivo. As to conditions: BALB/c, mouse, tumor, subcutaneous, 2.5 mg/kg.
The nature of the next series: clinical. The note with it: human, in vivo, po.

As for `NCCCC(N)(C(=O)O)C(F)F` (centres unmarked) [DFMO, difluoromethylornithine], in the series “water solubility”, the water solubility entry is given as “high”.

As for `CCCCCCCCCC(=O)O.CCCCCCCCCC(=O)O.CCCCCCCCCCCCCCCC(=O)NCCCC[C@@H](N)C(=O)NCCCNCCCCNCCCN` [AMXT 1501 dicaprate], the bioavailability result in series [1] was “low”.

Take `CCCCCCCCCCCCCCCC(=O)NCCCC[C@@H](N)C(=O)NCCCNCCCCNCCCN` [AMXT 1501, D-lys(palmitoyl)-spermine]: the “AMXT 1501 tumor AUC” value in series [2] is listed as 152,000 hr*ng/mL. The EC50 in the series with cancer cells (equivalent of 50 nM, read-out: plasma concentration equivalent to in vitro EC50) was determined as 0.028 µg/mL; with cancer cells (read-out: in vitro EC50 against cancer cells), 50 nM. Besides, the “duration of plasma levels” value in series [3] (Cohort 5, over the 24-hour dosing time increment) is listed as “sustained over the 24-hour dosing time increment”. Besides, the “adverse effects observed in patients” value in series [3] (Part 1 patients, mainly gastrointestinal (nausea and diarrhea)) was “modest Grades 1 and 2 adverse effects”. Moreover, the Cmax in series [3] (human, in vivo) was less than 1000 ng/mL; in “clinical”, 794 ng/mL. Moreover, the “mean AMXT 1501 exposure versus dose” value in series [3] (single or repeat PO dosing, dose levels of 160 mg AMXT 1501 and higher) is “increased in a dose-dependent manner”. For the same compound, in “in vivo”, the Kp came out at 14.
